Patent US20220267719A1, “METHOD FOR LOADING OF MICROORGANISMS ON MULTIPHASE BIOMATERIALS” (priority 2019, published 2022)

Tests used:
S. aureus [1] = assay: Agar well diffusion test without BNC; assay type: cell-based, Staphylococcus aureus
Protocol: For the agar diffusion test the OD600 of B. megaterium and B. subtilis was adjusted to 0.1 McFarland using sterilized saline NaCl 0.9%. The OD600 of S. aureus was adjusted to 0.5 McFarland using sterilized saline NaCl 0.9%. 20 μl of S. aureus was spread on the surface of Mueller-Hinton agar plate by a sterilized glass spreader. The wells are […] on the agar plate using the back side of a 1 ml pipette tip. A small volume of Mueller-Hinton agar was melted in boiling water bath, then 100 μl of it was used to close the bottom of each created well. After solidification of the agar in the bottom of the wells, the wells were filled with 100 μl of: Negative control, sterilized saline NaCl 0.9%, Positive control, gentamicin 300 μg/ml, B. megaterium or B. subtilis-free supernatant, B. megaterium or B. subtilis suspension.

S. aureus [2] = assay: Agar diffusion test with loaded BNC fleeces; assay type: cell-based, Staphylococcus aureus
Protocol: The evaluation of the antibacterial activity of B. subtilis and B. megaterium loaded-BNC against gram-positive S. aureus was determined by an agar diffusion test. Therefore, the bacterial suspensions of B. subtilis and S. aureus were prepared in TSB broth medium as described before. […] 3 BNC fleeces were loaded using B. subtilis suspension in TSB medium, and 3 BNC fleeces were loaded using B. subtilis suspension in saline. Further 3 BNC fleeces were loaded using the B. subtilis free-supernatant, 3 BNC fleeces were loaded with gentamycin as positive control, and 3 BNC fleeces with isotonic saline as negative control. The OD600 of S. aureus was adjusted to 0.5 McFarland using sterilized saline NaCl 0.9% and the optical density spectrophotometer (Biophotometer) was determined. 20 μl of S. aureus was spread on the surface of Mueller-Hinton agar plate by a sterilized glass spreader. The last control and loaded BNC fleeces were added onto surface of the Mueller Hinton agar: 1. Negative control: saline-loaded BNC 2. Positive control: gentamicin-loaded BNC 3. B. subtilis-loaded BNC in TSB medium 4. B. subtilis-loaded BNC in saline 5. B. subtilis-free supernatant-loaded BNC.

Substance: gentamicin [Gentamycin]
- inhibition effect on S. aureus by diffusion test, Without BNC (S. aureus [1]): + (by detection of inhibition zone > 2 mm)
- inhibition effect on S. aureus by diffusion test, on BNC - injection technique (S. aureus [2]; loaded on BNC by injection): + (by detection of inhibition zone > 2 mm)
- inhibition effect on S. aureus by diffusion test, on BNC - spray technique (S. aureus [2]; loaded on BNC by spray): + (by detection of inhibition zone > 2 mm)
- inhibition effect on S. aureus by diffusion test, on BNC - vortex technique (S. aureus [2]; loaded on BNC by vortex): + (by detection of inhibition zone > 2 mm)
